Test results published in patent US11414385B2, “Compounds and methods for treating, detecting, and identifying compounds to treat apicomplexan parasitic diseases” (The University of Chicago, priority 2015, dated 2022).
pEC50: −log10 of the molar value. Values after ≈ are worked out from the molar mass of the structure shown. “Also recorded” adds a separate entry of the source.

Key:
[1] = system: P. falciparum Dd2; assay: SYBR Green drug sensitivity of Dd2 and cytochrome b / scDHODH lines; format: cell-based, Plasmodium falciparum
Description: We used the following parasite line from the MR4 repository of the American Type Culture Collection (ATCC): Dd2 (MRA-156). Mutant Dd2 parasites harboring a G33A or G33V substitution in cytochrome b were as reported. Dd2 parasites with a G131 S mutation in cytochrome b and transgenic lines expressing a chromosomally integrated copy of the S. cerevisiae DHODH were utilized as previously described. Parasites were cultured by standard methods in RPMI media supplemented with 5% human O^+ serum and 0.25% AlbuMAX® II (Life Technologies 11021-045).
Drug susceptibility was measured using the SYBR Green method. Twelve point curves based on 2-fold dilutions of the test compound were carried out in triplicate each day and replicated on at least three different days. EC50 values were calculated using a nonlinear regression curve fit in Prism 6.0 for Mac (GraphPad Software, Inc.).

[2] = system: S. cerevisiae wild type parental AD1-9 strain; assay: Yeast growth inhibition on glycerol medium, wild type; format: cell-based, Saccharomyces cerevisiae; conditions: 1 mM, 100, 5 and 1 μM
Description: Three S. cerevisiae strains were used: M221Q and M221F cytochrome b mutants and wild type. They share the same nuclear genetic background deriving from AD1-9 (kindly given by M. Ghislain, UCL, Belgium). AD1-9 harbors multiple deletions in the ABC transporter genes that render the strain more sensitive to drugs than standard yeast strains^S65.
Protocol: Yeast strains were grown over 48 hours at 33° C. in liquid YPG medium [1% yeast extract, 2% (wt/vol) peptone, and 3% (vol/vol) glycerol). Cultures were diluted to an OD600 of 0.05 and grown for 2 hrs. Cultures were then combined with YPG containing 6% melted agar for a total volume of 15-20 mL and poured onto OmniTray single-well rectangular plates that measured 86 mm by 128 mm (ThermoScientific). Filter paper disks (7 mm diameter, […]) were placed onto the cooled agar plates. […] A single disk with DMSO on each plate was used as a control. Plates were incubated at 33° C. Images were obtained after 4 days using GelDoc XR Imaging System (BioRad) and Quantity One software. Drug effect was assessed by the presence and size of a zone of inhibition around the disks.

[3] = system: T. gondii Me49 strain cysts; assay: Established brain cysts in mice (chronic infection); format: in vivo, Toxoplasma gondii; conditions: cysts established >2 months earlier, 12.5-25 mg/kg for 17 days
Description: The ability of compounds to reduce cyst burden and prevent encephalitis induced by the Type II strain of T. gondii were tested. Encephalitis was assessed by histological analyses and parasite burdens evaluated by quantitation of cysts.
The oocyst challenge model is ideal for this study because oocysts can be diluted at one time and stored at 4° C. for 12 months without loss of infectivity titer. For treatment of chronic infection there were 5 to 10 mice per group treated 2 months after infection was established by compound in DMSO for parenteral administration administered once per day. Treatment was for 17 days.

[4] = Cytotoxicity assay with WST-1 in HFF; format: cell-based; conditions: human, human foreskin fibroblasts (HFF); read-out: HFF Toxicity CC50
Description: (§1) Toxicity assays were conducted using WST-1 cell proliferation reagent (Roche). HFF were grown on a flat, clear-bottomed, black 96-well plate. Confluent HFF were treated with inhibitory compounds at concentrations equal to those being tested in challenge assays. Compounds were diluted in IMDM-C, and 20 μl were added to each designated well, with triplicates for each condition. A gradient of 2 fold-decreasing concentrations of DMSO in clear IMDM-C was used as a control. The plate was incubated for 72 hours at 37° C. 10 μl of WST-1 reagent (Roche) were added to each well and the cells were incubated for 30 to 60 minutes. Absorbance was read using a fluorometer at 420 nm. A higher degree of color change (and absorbance) indicated mitochondrial activity and cell viability.
as §1, with “(Roche) as described in Fomovska, et. al. (18,19).” for “(Roche).”, “of 10 μM and 50 μM.” for “equal to those being tested in challenge assays.”, “DMSO from 10% to 0%” for “DMSO”, “fluorimeter” for “fluorometer”

[5] = FaSSIF solubility pH 6.5; format: physicochemical
[6] = system: RH-YFP; assay: Assessment of compound degradation and microbicidal effect on Toxoplasma; format: cell-based, Toxoplasma gondii
Description: HFF were cultured in a 96-well plate and infected with RH-YFP as described above on Day 0, 20 μL of compound was added to 9 wells for each compound and concentration (3 conditions, 3 wells per condition). In condition I, media was removed and replaced with fresh media on Day 3. In condition II, media was removed and replaced with fresh media and more compound on Day 3. In condition III, media was not replaced on Day 3, nor was the compound refreshed. On Day 6, media was removed and replaced with clean media in all wells. On Day 3, 6, and 9 plate was read in the fluorimeter and analyzed graphically in Prism (GraphPad Software).

[7] = system: Toxoplasma RPS13 delta; assay: RPS13 delta G0 arrested parasite in interferon gamma knockout mice; format: in vivo, Toxoplasma gondii; conditions: with tafenoquine 3 mg/kg single dose, minus tetracycline
Description: RPS13 Δ. This G0 arrested parasite persists in tissue culture for prolonged times in the absence of tetracycline. The parasite (x) was used to infect interferon gamma knockout mice. For the first y days no tetracycline was administered. After that time tetracycline was administered. Mice were observed and at the time they appeared ill or at the termination of the experiment they were euthanized and tissues fixed in formalin and stained with hematoxylin and eosin or immunoperoxidase stained and parasite burden was assessed.

[8] = system: human foreskin fibroblasts (HFF); assay: Cytotoxicity assay with WST-1 in HFF; format: cell-based; conditions: 10 μM and 50 μM, WST-1
Description: as §1
as §1, with “(Roche) as described in Fomovska, et. al. (18,19).” for “(Roche).”, “of 10 μM and 50 μM.” for “equal to those being tested in challenge assays.”, “DMSO from 10% to 0%” for “DMSO”, “fluorimeter” for “fluorometer”

[9] = system: HEP G2; assay: IC50 with HEP G cells (toxicity); format: cell-based, human; conditions: not toxic
[10] = system: CYP; assay: CYP profile; format: in vitro ADME
[11] = target: hERG (Homo sapiens, UniProt Q12809); assay: hERG profile
Sequence of hERG (Q12809 whole entry): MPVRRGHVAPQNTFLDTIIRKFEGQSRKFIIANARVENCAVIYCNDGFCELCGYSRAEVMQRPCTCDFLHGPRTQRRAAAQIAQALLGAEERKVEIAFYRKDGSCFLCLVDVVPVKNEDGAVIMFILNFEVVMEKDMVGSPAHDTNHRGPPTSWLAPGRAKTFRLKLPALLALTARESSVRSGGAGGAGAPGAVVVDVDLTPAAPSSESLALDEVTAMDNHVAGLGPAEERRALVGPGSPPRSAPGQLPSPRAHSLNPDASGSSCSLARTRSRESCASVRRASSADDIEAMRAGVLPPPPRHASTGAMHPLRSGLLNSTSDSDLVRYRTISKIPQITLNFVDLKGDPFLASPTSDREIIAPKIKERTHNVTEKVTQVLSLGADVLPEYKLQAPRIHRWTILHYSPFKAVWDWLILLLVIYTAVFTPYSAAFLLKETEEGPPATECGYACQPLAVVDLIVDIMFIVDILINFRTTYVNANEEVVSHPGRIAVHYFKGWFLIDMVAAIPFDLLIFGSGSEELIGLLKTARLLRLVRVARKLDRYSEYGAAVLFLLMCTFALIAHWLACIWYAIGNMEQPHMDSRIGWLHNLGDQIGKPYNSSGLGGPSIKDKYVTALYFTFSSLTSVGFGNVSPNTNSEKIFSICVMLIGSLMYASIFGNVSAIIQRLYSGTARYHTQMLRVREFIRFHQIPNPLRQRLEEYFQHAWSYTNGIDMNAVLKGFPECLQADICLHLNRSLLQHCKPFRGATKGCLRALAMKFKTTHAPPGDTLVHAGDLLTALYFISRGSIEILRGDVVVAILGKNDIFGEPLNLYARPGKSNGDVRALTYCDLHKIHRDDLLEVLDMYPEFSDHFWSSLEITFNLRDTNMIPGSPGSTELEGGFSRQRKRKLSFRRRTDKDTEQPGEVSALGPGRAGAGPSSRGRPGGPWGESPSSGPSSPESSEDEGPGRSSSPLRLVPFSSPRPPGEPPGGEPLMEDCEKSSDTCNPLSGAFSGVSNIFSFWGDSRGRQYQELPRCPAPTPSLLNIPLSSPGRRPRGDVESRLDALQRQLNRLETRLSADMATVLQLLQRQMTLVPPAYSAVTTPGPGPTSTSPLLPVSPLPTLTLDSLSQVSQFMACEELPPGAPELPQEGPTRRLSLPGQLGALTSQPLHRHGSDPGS

SMILES | cross-resistance in cytochrome b drug-resistant mutant lines ([1]; Dd2 G33A and Dd2 G33V) | pEC50 ([1]; Plasmodium falciparum, DD2) | inhibition of parasite supplemented with yeast cytosolic DHODH ([1]; scDHODH line) | growth inhibition of wild type yeast [2] | effect on numbers of Me49 strain cysts in mice [3] | effect on numbers of Me49 strain cysts in mice ([3]; listed as MJM 170) | CC50 at 72 h [4] [µM] | solubility ([5]; FaSSIF, pH 6.5, fassif) [µM] | improved FaSSIF/FeSSIF (pH 6.5) solubility ([5]; relative to ELQ 271) [fold] | compound degradation over time ([6]; 6-day exposure in culture) | microbicidal effect ([6]; RH-YFP, media replaced) | protection against RPS13 delta in combination with tafenoquine [7] | toxicity to human foreskin fibroblasts [8] | toxicity to human HepG cells [9] [µM] | CYP profile [10] | hERG profile [11]
Cc1[nH]c2c(c(=O)c1-c1ccc(Oc3ccccc3)cc1)CCCC2 [MJM170] | without cross-resistance | 7.53 | cannot inhibit | effective | modestly reduced numbers | reduces cysts | 20 | 9.8 (≈ 3.25 µg/mL) | 3 |  |  |  |  |  |  | 
Cc1[nH]c2c(c(=O)c1-c1ccc(Oc3ccc(OC(F)(F)F)cc3)cc1)CCCC2 [JAG21, 2-methyl-3-(4-(4-(trifluoromethoxy)phenoxy)phenyl)-5,6,7,8-tetrahydroquinolin-4(1H)-one] |  |  |  |  |  |  |  |  |  | did not appear that the compound was being degraded over time | Neither compound was found to be microbicidal | both needed to contain RPS 13Δ; also recorded: protect against a G0 arrested parasite; also recorded: superior to either alone | no toxicity | > 17 | clean | clean
